Measurements: patent US9937225B2, “Topical formulations and uses thereof” (OCULAR TECHNOLOGIES SARL, priority 2012, dated 2018)

Legend:
[1] = Mixed nanomicellar size and polydispersity index (Zetasizer); type: physicochemical; conditions: solvent evaporation; HCO-60 4 wt %, Octoxynol-40 0.01 wt %, 1001 initially added 0.120 wt %
Protocol: The formulation size and polydispersity index were determined with Zetasizer, Malvern Instruments, NJ. In brief, approximately 1 ml of each formulation was transferred to a cuvette and placed in the instrument. A laser beam of light was used to determine the mixed nanomicellar size.
(§1) Weight percent of drug loaded into MNF was determined following the method for entrapment efficiency. Size and polydispersity index of the formulations was determined with Malvern zetasizer as described above. The formulations appear clear and have small size and narrow size distribution.

[2] = Ocular tissue distribution of compound 1001 nanomicellar formulations (LC-MS/MS); type: in vivo, New Zealand White Rabbits; conditions: rabbits, topical ocular administration
Protocol: A study was conducted in rabbits to test the tolerance and ocular tissue distribution of two nanomicellar formulations of compound 1001 (RX10045) against matching placebos (Table 6a and 6b) and balanced saline solution (BSS). Healthy New Zealand female white rabbits (2-3 kg) were used for this study. One drop (approximately 35 μL) of study drug was applied o.d. 4×/day at two hour intervals for 5 days. One drop of BSS was applied to the contralateral eye.
Selected ocular fluids/tissues (aqueous humor, vitreous humor, conjunctiva, cornea, iris-ciliary body, lens, retina/choroid, and sclera) collected from two rabbits each in the RX-10045 (0.15% in HCO-60, 0.1% in HCO-40) treatment groups, and from one rabbit in each of the matching placebo groups, were assayed for compound 1001 and another resolvin by liquid chromatography-tandem mass spectrometry (LC-MS/MS). Warfarin-d5 and 5-HDA were used as internal standards for the analysis of RX-10045 and its active metabolite, RX-10008, respectively, in aqueous humor and vitreous humor. For the other ocular tissues (solid tissues), warfarin-d5 and phenyl acetic acid-d5 (PAA-d5) were used as the internal standards for compound 1001 and RX-10008, respectively. The analytical range for the solid tissues were 0.125-100 ng. The results of the solid tissue analyses were converted to ng/g by correcting for the amount of tissue analyzed.

[3] = Weight percent of compound 1001 loaded into mixed nanomicelles (entrapment, RP-HPLC); type: physicochemical; conditions: solvent evaporation, HCO-60 4 wt %, Octoxynol-40 0.01 wt %
Protocol: To determine the entrapment efficiency of the formulation, all the prepared formulations were subjected to entrapment efficiency test. Briefly, formulations were vortex mixed for homogeneity and 1 mL was transferred to a fresh (1.5 mL) eppendorf tube. Each formulation was lyophilized to obtain a solid at the bottom of eppendorf tube. The obtained solid was suspended in 1 mL of organic solvent (diethyl ether) to generate reverse micelles and release the drug into the external organic solvent. The organic solvent was evaporated overnight in speed vacuum. The resultant reversed micelles were resuspended in 1 mL of 2-propanol (dilution factor was taken into account) and further diluted to determine the concentration of compound 1001 entrapped in each micellar preparation with HPLC. The entrapment efficiency of the formulation was calculated with the following formula (wherein MNF=Mixed Nanomicellar Formulation): […]
In vitro analysis of compound 1001 was performed by a reversed phase high performance liquid chromatography (RP-HPLC) method with a Shimadzu HPLC pump (Shimadzu, Shimadzu Scientific instruments, Columbia, Md.), Alcott autosampler (model 718 AL), Shimadzu UV/Visible detector (Shimadzu, SPD-20A/20AV, USA), ODS column (5 μm, 150×4.6 mm) thermostated at 40°±1 C and Hewlett Packard HPLC integrator (Hewlett Packard, Palo Alto, Calif.). The mobile phase was comprised of methanol (MeOH), water and trifluoroacetic acid (TFA) (70:30:0.05% v/v) which was set at a flow rate of 0.5 mL/min. Detection wavelength was set at 272 nm. The sample tray temperature was maintained at 4° C. Calibration curve (0.5 to 5 μg/mL) for compound 1001 was prepared by making appropriate dilutions from the stock solution in 2-propanol. An injection volume of 10 μl was injected into the HPLC column for analysis. All the standards and samples prepared were stored at 4° C. before and during the analysis.
Mixed nanomicellar formulation encapsulating compound 1001 was prepared by solvent evaporation method in two steps: 1) Preparation of basic formulation and 2) rehydration. In step one, compound 1001, HCO-60 and octoxynol-40 were dissolved separately in 0.3 mL of ethyl acetate. These three solutions were mixed together in 15-mL centrifuge tube. The resultant mixture was vortexed to obtain a homogenous solution. Ethyl acetate solvent was removed with speed vacuum to obtain a solid thin film. The residue was kept overnight under high vacuum at room temperature to remove residual organic solvent. In step two, the resultant thin film was hydrated with 1 mL of double distilled deionized water by vortexing the solution. The rehydrated formulation was suspended in 2× phosphate buffer solution, (pH 6.5). It was filtered through 0.2 μm nylon filter membrane to remove the unentrapped drug aggregates and other foreign particulates. The entrapment of compound 1001 was determined by RP-HPLC following disruption of the micelles and solubilization of 1001 in the diluent (2-propanol) as described below
as §1

With C#CC[C@@H](O)/C=C/C=C/C#C[C@@H](O)CCCC(=O)OC(C)C [compound 1001] the “Polydispersity Index” value [1] was 0.320, the “Hydrolysis to active metabolite RX-10008 in ocular tissues” value [2] was “rapidly hydrolyzed” and the “1001 (loaded in mixed micelles) wt %” value ([3]; 1001 initially added 0.035 wt %) was 0.033 wt %. For the same compound, the “1001 (loaded in mixed micelles) wt %” value ([3]; 1001 initially added 0.070 wt %) was 0.065 wt %, the “1001 (loaded in mixed micelles) wt %” value ([3]; 1001 initially added 0.095 wt %) was 0.084 wt % and the “1001 (loaded in mixed micelles) wt %” value ([3]; 1001 initially added 0.120 wt %) was 0.11 wt %. The “1001 (loaded in mixed micelles) wt %” value ([3]; 1001 initially added 0.250 wt %) was 0.26 wt %, the “1001 (loaded in mixed micelles) wt %” value ([3]; 1001 initially added 0.300 wt %) was 0.32 wt % and the “1001 (loaded in mixed micelles) wt %” value ([3]; 1001 initially added 0.400 wt %) was 0.45 wt %.
